# Calls of active or inactive are those of the source. The calls are words filed in the database; no cut-off is given here.
# Tested on: RAW264.7
# Experiment: Inhibition of NO production in LPS-stimulated mouse RAW264.7 cells at 50 uM preincubated for 15 mins followed by LPS stimulation and measured after 20 hrs by Griess reagent based assay relative to control
# Assay type: functional
# Conditions: RAW264.7, 20.25 h, time 1215 min
row,Structure (SMILES),inhibition at 50 µM
1,CCCCCCCC(=O)c1ccc(OC)c2[nH]c(C)c(OC)c(=O)c12,< 50%
2,COc1c(C)[nH]c2c(c1=O)[C@@H](CCCCC(=O)c1ccccc1)CCC2=O,< 50%
3,COc1c(C)[nH]c2c(c1=O)[C@@H](CCCCCc1ccc(O)cc1)CCC2=O,< 50%
4,COc1c(C)n(OC)c2c(c1=O)[C@@H](CCCCC(=O)c1ccccc1)CCC2,< 50%
5,COc1c(C)[nH]c2c(OC)ccc(C(=O)CCCCc3ccccc3)c2c1=O,< 50%
6,COc1c(C)[nH]c2c(O)ccc(CCCCCc3ccccc3)c2c1=O,< 50%
7,CCCCCCCC[C@H]1CCCc2[nH]c(C)c(OC)c(=O)c21,99.9%
8,COc1c(C)n(OC)c2c(c1=O)[C@@H](CCCCCc1ccccc1)CCC2,99.7%
9,COc1ccccc1[C@@H]1c2ccc3[nH]c(C)c(OC)c(=O)c3c2[C@@H]2CC[C@H]1O2,56.3%
10,CCCCCCCC[C@H]1CCC(=O)c2[nH]c(C)c(OC)c(=O)c21,97.4%
11,COc1c(C)n(OC)c2c(c1=O)[C@@H](CCCCCc1ccc(O)cc1)CCC2,94.5%
12,COc1ccc(OC)c([C@@]2(O)c3ccc4[nH]c(C)c(OC)c(=O)c4c3[C@@H]3CC[C@H]2O3)c1,< 50%
13,CC[C@@H](C)[C@@H]1NC(=O)[C@@H](NC(=O)[C@H](Cc2ccccc2)N(C)C)[C@@H](c2ccccc2)Oc2ccc(cc2)/C=C\NC1=O,< 50%
14,COc1c(C)[nH]c2c(c1=O)[C@@H](CCCCCc1ccccc1)CCC2,97.2%
15,COc1c(C)[nH]c2c(c1=O)[C@@H](CCCCCc1ccccc1)CCC2=O,59.7%

# Tested on: RAW264.7
# Experiment: Inhibition of NO production in LPS-stimulated mouse RAW264.7 cells preincubated for 15 mins followed by LPS stimulation and measured after 20 hrs by Griess reagent based assay
# Assay type: functional, cell-based
# Conditions: not given
row,IC50,Structure (SMILES)
1,20.8 µM,CCCCCCCC[C@H]1CCCc2[nH]c(C)c(OC)c(=O)c21
2,11 µM,COc1c(C)n(OC)c2c(c1=O)[C@@H](CCCCCc1ccccc1)CCC2
3,38.8 µM,COc1ccccc1[C@@H]1c2ccc3[nH]c(C)c(OC)c(=O)c3c2[C@@H]2CC[C@H]1O2
4,16.1 µM,CCCCCCCC[C@H]1CCC(=O)c2[nH]c(C)c(OC)c(=O)c21
5,18.8 µM,COc1c(C)n(OC)c2c(c1=O)[C@@H](CCCCCc1ccc(O)cc1)CCC2
6,11.7 µM,COc1c(C)[nH]c2c(c1=O)[C@@H](CCCCCc1ccccc1)CCC2
7,40.7 µM,COc1c(C)[nH]c2c(c1=O)[C@@H](CCCCCc1ccccc1)CCC2=O

# Tested on: not listed separately
# Experiment: Cytotoxicity against LPS-stimulated mouse RAW264.7 cells assessed as cell survival at 50 uM preincubated for 15 mins followed by LPS stimulation and measured after 20 hrs by CCK-8 assay relative to control
# Assay type: toxicity, cell-based
# Conditions: LPS-stimulated RAW264.7 cells, time 1215 min, read-out: Activity
row,Structure (SMILES),"viability at 20 h, 50 µM"
1,CCCCCCCC(=O)c1ccc(OC)c2[nH]c(C)c(OC)c(=O)c12,69.9%
2,COc1c(C)[nH]c2c(c1=O)[C@@H](CCCCC(=O)c1ccccc1)CCC2=O,74.5%
3,COc1c(C)[nH]c2c(c1=O)[C@@H](CCCCCc1ccc(O)cc1)CCC2=O,89.3%
4,COc1c(C)n(OC)c2c(c1=O)[C@@H](CCCCC(=O)c1ccccc1)CCC2,73.2%
5,COc1c(C)[nH]c2c(OC)ccc(C(=O)CCCCc3ccccc3)c2c1=O,82.8%
6,COc1c(C)[nH]c2c(O)ccc(CCCCCc3ccccc3)c2c1=O,59.3%
7,CCCCCCCC[C@H]1CCCc2[nH]c(C)c(OC)c(=O)c21,67.6%
8,COc1c(C)n(OC)c2c(c1=O)[C@@H](CCCCCc1ccccc1)CCC2,< 50%
9,COc1ccccc1[C@@H]1c2ccc3[nH]c(C)c(OC)c(=O)c3c2[C@@H]2CC[C@H]1O2,100%
10,CCCCCCCC[C@H]1CCC(=O)c2[nH]c(C)c(OC)c(=O)c21,63.5%
11,COc1c(C)n(OC)c2c(c1=O)[C@@H](CCCCCc1ccc(O)cc1)CCC2,< 50%
12,COc1ccc(OC)c([C@@]2(O)c3ccc4[nH]c(C)c(OC)c(=O)c4c3[C@@H]3CC[C@H]2O3)c1,100%
13,CC[C@@H](C)[C@@H]1NC(=O)[C@@H](NC(=O)[C@H](Cc2ccccc2)N(C)C)[C@@H](c2ccccc2)Oc2ccc(cc2)/C=C\NC1=O,94.8%
14,COc1c(C)[nH]c2c(c1=O)[C@@H](CCCCCc1ccccc1)CCC2,84.3%
15,COc1c(C)[nH]c2c(c1=O)[C@@H](CCCCCc1ccccc1)CCC2=O,67.5%

# Tested on: not listed separately
# Experiment: Cytotoxicity against LPS-stimulated mouse RAW264.7 cells assessed as cell growth inhibition preincubated for 15 mins followed by LPS stimulation and measured after 20 hrs by CCK-8 assay
# Assay type: toxicity, cell-based
# Conditions: LPS-stimulated RAW264.7 cells
row,Structure (SMILES),IC50 at 20 h
1,COc1c(C)n(OC)c2c(c1=O)[C@@H](CCCCCc1ccccc1)CCC2,32.2 µM
2,COc1c(C)n(OC)c2c(c1=O)[C@@H](CCCCCc1ccc(O)cc1)CCC2,25.9 µM

# Tested on: not listed separately
# Experiment: Antiinflammatory activity in human 293/NFkB-Luc cells assessed as inhibition of TNF-alpha induced NFkaapaB activity at 50 uM preincubated for 15 mins followed by TNF-alpha induction and measured after 6 hrs by luminescence based assay relative to control
# Assay type: functional
# Conditions: 6.25 h, time 375 min
row,Structure (SMILES),inhibition at 50 µM
1,CCCCCCCC(=O)c1ccc(OC)c2[nH]c(C)c(OC)c(=O)c12,< 50%
2,COc1c(C)[nH]c2c(c1=O)[C@@H](CCCCC(=O)c1ccccc1)CCC2=O,< 50%
3,COc1c(C)[nH]c2c(c1=O)[C@@H](CCCCCc1ccc(O)cc1)CCC2=O,< 50%
4,COc1c(C)n(OC)c2c(c1=O)[C@@H](CCCCC(=O)c1ccccc1)CCC2,97.9%
5,COc1c(C)[nH]c2c(OC)ccc(C(=O)CCCCc3ccccc3)c2c1=O,< 50%
6,COc1c(C)[nH]c2c(O)ccc(CCCCCc3ccccc3)c2c1=O,< 50%
7,CCCCCCCC[C@H]1CCCc2[nH]c(C)c(OC)c(=O)c21,< 50%
8,COc1c(C)n(OC)c2c(c1=O)[C@@H](CCCCCc1ccccc1)CCC2,88.6%
9,COc1ccccc1[C@@H]1c2ccc3[nH]c(C)c(OC)c(=O)c3c2[C@@H]2CC[C@H]1O2,84.5%
10,CCCCCCCC[C@H]1CCC(=O)c2[nH]c(C)c(OC)c(=O)c21,< 50%
11,COc1c(C)n(OC)c2c(c1=O)[C@@H](CCCCCc1ccc(O)cc1)CCC2,85.4%
12,COc1ccc(OC)c([C@@]2(O)c3ccc4[nH]c(C)c(OC)c(=O)c4c3[C@@H]3CC[C@H]2O3)c1,< 50%
13,CC[C@@H](C)[C@@H]1NC(=O)[C@@H](NC(=O)[C@H](Cc2ccccc2)N(C)C)[C@@H](c2ccccc2)Oc2ccc(cc2)/C=C\NC1=O,< 50%
14,COc1c(C)[nH]c2c(c1=O)[C@@H](CCCCCc1ccccc1)CCC2,< 50%
15,COc1c(C)[nH]c2c(c1=O)[C@@H](CCCCCc1ccccc1)CCC2=O,< 50%

# Tested on: not listed separately
# Experiment: Antiinflammatory activity in human 293/NFkB-Luc cells assessed as inhibition of TNF-alpha induced NFkaapaB activity preincubated for 15 mins followed by TNF-alpha induction and measured after 6 hrs by luminescence based assay
# Assay type: functional, cell-based
# Conditions: not given
row,IC50,Structure (SMILES)
1,8.9 µM,COc1c(C)n(OC)c2c(c1=O)[C@@H](CCCCC(=O)c1ccccc1)CCC2
2,12.1 µM,COc1c(C)n(OC)c2c(c1=O)[C@@H](CCCCCc1ccccc1)CCC2
3,7.2 µM,COc1ccccc1[C@@H]1c2ccc3[nH]c(C)c(OC)c(=O)c3c2[C@@H]2CC[C@H]1O2
4,10.3 µM,COc1c(C)n(OC)c2c(c1=O)[C@@H](CCCCCc1ccc(O)cc1)CCC2

# Tested on: not listed separately
# Experiment: Cytotoxicity against TNF-alpha induced human 293/NFkB-Luc cells assessed as increase in cell survival at 50 uM preincubated for 15 mins followed by TNF-alpha induction and measured after 6 hrs by MTT assay relative to control
# Assay type: toxicity, cell-based
# Conditions: TNF-alpha induced 293/NFkB-Luc cells, time 375 min, read-out: Activity
row,Structure (SMILES),"viability at 6 h, 50 µM"
1,CCCCCCCC(=O)c1ccc(OC)c2[nH]c(C)c(OC)c(=O)c12,86.7%
2,COc1c(C)[nH]c2c(c1=O)[C@@H](CCCCC(=O)c1ccccc1)CCC2=O,82.2%
3,COc1c(C)[nH]c2c(c1=O)[C@@H](CCCCCc1ccc(O)cc1)CCC2=O,80.5%
4,COc1c(C)n(OC)c2c(c1=O)[C@@H](CCCCC(=O)c1ccccc1)CCC2,82.7%
5,COc1c(C)[nH]c2c(OC)ccc(C(=O)CCCCc3ccccc3)c2c1=O,76.8%
6,COc1c(C)[nH]c2c(O)ccc(CCCCCc3ccccc3)c2c1=O,83.5%
7,CCCCCCCC[C@H]1CCCc2[nH]c(C)c(OC)c(=O)c21,90.8%
8,COc1c(C)n(OC)c2c(c1=O)[C@@H](CCCCCc1ccccc1)CCC2,89%
9,COc1ccccc1[C@@H]1c2ccc3[nH]c(C)c(OC)c(=O)c3c2[C@@H]2CC[C@H]1O2,79.6%
10,CCCCCCCC[C@H]1CCC(=O)c2[nH]c(C)c(OC)c(=O)c21,85.8%
11,COc1c(C)n(OC)c2c(c1=O)[C@@H](CCCCCc1ccc(O)cc1)CCC2,85.3%
12,COc1ccc(OC)c([C@@]2(O)c3ccc4[nH]c(C)c(OC)c(=O)c4c3[C@@H]3CC[C@H]2O3)c1,74.5%
13,CC[C@@H](C)[C@@H]1NC(=O)[C@@H](NC(=O)[C@H](Cc2ccccc2)N(C)C)[C@@H](c2ccccc2)Oc2ccc(cc2)/C=C\NC1=O,86.4%
14,COc1c(C)[nH]c2c(c1=O)[C@@H](CCCCCc1ccccc1)CCC2,77.2%
15,COc1c(C)[nH]c2c(c1=O)[C@@H](CCCCCc1ccccc1)CCC2=O,88.4%

# Tested on: RAW264.7
# Experiment: Antiinflammatory activity in mouse RAW264.7 cells assessed as inhibition of LPS-induced iNOS protein expression at 30 uM preincubated for 15 mins followed by LPS stimulation and measured after 24 hrs by Western blot analysis
# Assay type: functional, cell-based
# Conditions: time 1215.0 min
row,Structure (SMILES),Activity
1,CCCCCCCC[C@H]1CCC(=O)c2[nH]c(C)c(OC)c(=O)c21,Active
2,COc1c(C)[nH]c2c(c1=O)[C@@H](CCCCCc1ccccc1)CCC2,Active

# Tested on: RAW264.7
# Experiment: Antiinflammatory activity in mouse RAW264.7 cells assessed as inhibition of LPS-induced […] at 10 to 30 uM preincubated for 15 mins followed by LPS stimulation and measured after 4 hrs by qPCR analysis
# Assay type: functional, cell-based
# Conditions: dose 10-30 µM, time 255.0 min
row,Structure (SMILES),Activity
1,COc1c(C)[nH]c2c(c1=O)[C@@H](CCCCCc1ccccc1)CCC2,Active

# Source: ChEMBL document CHEMBL5226392, “Anti-inflammatory Quinoline Alkaloids from the Roots of Waltheria indica” (J Nat Prod, 2023)
